According to EP1681292A1, “3-Amino-6-aryl(or 6-heteroaryl)-thieno¬2,3-b|pyridin-2-carboxylic acid amides, pharmaceutical compositions comprising the said and their use as inhibitors of TNFalpha release” (IBFB Pharma GmbH, priority 2005, dated 2006):

These compounds were tested on TNFα-Freisetzung (assay: Inhibition of TNFα release after LPS stimulation of human whole blood (ELISA)). Details: human whole blood diluted 1:5 with RPMI 1640, LPS (Salmonella abortus equi) 1 µg/ml, 24 h at 37°C, TNFα in supernatant by ELISA; read-out: Hemmung der TNFα-Freisetzung, EC50.
Assay type: cell-based
Excerpt: Methodenbeschreibung der Hemmung der TNFα Freisetzung nach LPS Stimulation von humanem Vollblut
Die Stimulierung isolierter Leukozyten für die Freisetzung von Zytokinen kann auf verschiedenen Wegen erfolgen. Lipopolysaccharide (LPS) stellen einen Stimulus für die Untersuchung der Freisetzung von TNFα dar. LPS ist Bestandteil bakterieller Zellwände und wird beim Abtöten der Bakterien (durch Antibiotika oder das natürliche Immunsystem) freigesetzt. LPS stimuliert insbesondere die Aktivität phagozytierender Leukozyten (Gewebsmakrophagen, Granulozyten, Monozyten) und verursacht die Infiltration von Leukozyten vom peripheren Blut in das betroffene Gewebe. Ein Zytokin von besonderer Bedeutung für diese Mechanismen ist TNFα, das in großen Mengen durch die betroffenen Zellen sezerniert wird. Hauptquelle dabei sind Monozyten und Makrophagen. TNFα initiiert und prolongiert den Entzündungsprozess im Zusammenspiel mit anderen Mediatoren.
Für die Untersuchung des Effektes auf die LPS-induzierte TNFα-Freisetzung wurde eine Methode verwendet, die von MARX et al. (Marx D, Tassabehji M, Heer S, Hüttenbrink KB, Szelenyi I (2002) Pulmonary Pharmacology & Therapeutics 15 7-15) beschrieben wurde. Die Methodenbeschreibung in verkürzter Darstellung: Humanes Blut verschiedener Spendern wird durch Zusatz von 10 mM Na-Citrat ungerinnbar gemacht und 1:5 mit RPMI 1640 Zellkulturmedium verdünnt. Die Verbindungen der allgemeinen Formel 1 sowie die Kontrollsubstanzen (z.B. Dexamethason) wurden den Blutproben in verschiedenen Konzentrationen hinzugefügt. 15 Minuten später wurden die Leukozyten durch Zusatz von Lipopolysacchariden (LPS) (aus Salmonella abortus equi) in einer Endkonzentration von 1 µg/ml stimuliert. Nach Inkubation der Testansätze für 24 Stunden bei 37°C. und unter 5% CO2 in wassergesättigter Luft, wurde das Blut zentrifugiert und die Konzentration an TNFα im zellfreien Überstand unter Verwendung eines käuflichen ELISA (BD Biosciences) nach Angaben des Herstellers exakt vermessen.

EC50, < 5 nM:
Cc1ccc(-c2cc(C(F)(F)F)c3c(N)c(C(N)=O)sc3n2)cc1C [Beispiel 18, 3-Amino-6-(3,4-dimethyl-phenyl)-4-trifluormethyl-thieno[2,3-b]pyridin-2-carbonsäureamid]
NC(=O)c1sc2nc(-c3ccc(Br)cc3)cc(C(F)(F)F)c2c1N [Beispiel 23, 3-Amino-6-(4-brom-phenyl)-4-trifluormethyl-thieno[2,3-b]pyridin-2-carbonsäureamid]
NC(=O)c1sc2nc(-c3cccs3)cc(C(F)(F)F)c2c1N [3-Amino-6-(2-thienyl)-4-trifluormethyl-thieno[2,3-b]pyridin-2-carbonsäureamid]
Cc1cc(-c2ccc(Cl)cc2)nc2sc(C(N)=O)c(N)c12 [3-Amino-6-(4-chlor-phenyl)-4-methyl-thieno[2,3-b]pyridin-2-carbonsäureamid]
CCc1cc(-c2ccc(SC)cc2)nc2sc(C(N)=O)c(N)c12 [Beispiel 31, 3-Amino-4-ethyl-6-(4-methylthio-phenyl)-thieno[2,3-b]pyridin-2-carbonsäureamid]
COc1ccc(-c2cc(C(F)(F)F)c3c(N)c(C(N)=O)sc3n2)cc1 [Beispiel 19, 3-Amino-6-(4-methoxy-phenyl)-4-trifluormethyl-thieno[2,3-b]pyridin-2-carbonsäureamid]
Cc1cccc(-c2cc(C)c3c(N)c(C(N)=O)sc3n2)c1 [Beispiel 2, 3-Amino-4-methyl-6-(3-methyl-phenyl)-thieno[2,3-b]pyridin-2-carbonsäureamid]
CCc1cc(-c2ccc(Cl)cc2)nc2sc(C(N)=O)c(N)c12 [Beispiel 30, 3-Amino-6-(4-chlor-phenyl)-4-ethyl-thieno[2,3-b]pyridin-2-carbonsäureamid]
CSc1ccc(-c2cc(C(F)(F)F)c3c(N)c(C(N)=O)sc3n2)cc1 [3-Amino-6-(4-methylthio-phenyl)-4-trifluormethyl-thieno[2,3-b]pyridin-2-carbonsäureamid]
CCCc1ccc(-c2cc(C(F)(F)F)c3c(N)c(C(N)=O)sc3n2)cc1 [Beispiel 16, 3-Amino-6-(4-propyl-phenyl)-4-trifluormethyl-thieno[2,3-b]pyridin-2-carbonsäureamid]
NC(=O)c1sc2nc(-c3ccc4c(c3)OCCO4)cc(C(F)(F)F)c2c1N [3-Amino-6-(3,4-dioxoethylen-phenyl)-4-trifluormethyl-thieno[2,3-b]pyridin-2-carbonsäureamid]
COc1ccc(-c2cc(C)c3c(N)c(C(N)=O)sc3n2)cc1 [Beispiel 4, 3-Amino-4-methyl-6-(4-methoxy-phenyl)-thieno[2,3-b]pyridin-2-carbonsäureamid]
Cc1cc(-c2ccccc2)nc2sc(C(N)=O)c(N)c12 [Beispiel 8, 3-Amino-4-methyl-6-phenyl-thieno[2,3-b]pyridin-2-carbonsäureamid]
Cc1ccc(-c2cc(C)c3c(N)c(C(N)=O)sc3n2)cc1 [Beispiel 3, 3-Amino-4-methyl-6-(4-methyl-phenyl)-thieno[2,3-b]pyridin-2-carbonsäureamid]
Cc1cc(-c2ccc3c(c2)OCCO3)nc2sc(C(N)=O)c(N)c12 [3-Amino-6-(3,4-dioxoethylen-phenyl)-4-methyl-thieno[2,3-b]pyridin-2-carbonsäureamid]
CCc1cc(-c2ccc(C)cc2)nc2sc(C(N)=O)c(N)c12 [Beispiel 27, 3-Amino-4-ethyl-6-(4-methyl-phenyl)-thieno[2,3-b]pyridin-2-carbonsäureamid]
Cc1cc(-c2ccc3c(c2)OCO3)nc2sc(C(N)=O)c(N)c12 [Beispiel 9, 3-Amino-6-(3,4-dioxomethylen-phenyl)-4-methyl-thieno[2,3-b]pyridin-2-carbonsäureamid]
NC(=O)c1sc2nc(-c3ccc(F)cc3)cc(C(F)(F)F)c2c1N [Beispiel 21, 3-Amino-6-(4-fluor-phenyl)-4-trifluormethyl-thieno[2,3-b]pyridin-2-carbonsäureamid]
Cc1cc(-c2ccc(Br)cc2)nc2sc(C(N)=O)c(N)c12 [Beispiel 7, 3-Amino-6-(4-brom-phenyl)-4-methyl-thieno[2,3-b]pyridin-2-carbonsäureamid]
NC(=O)c1sc2nc(-c3ccc4ccccc4c3)cc(C(F)(F)F)c2c1N [Beispiel 25, 3-Amino-6-(2-naphthyl)-4-trifluormethyl-thieno[2,3-b]pyridin-2-carbonsäureamid]
CC(C)c1ccc(-c2cc(C(F)(F)F)c3c(N)c(C(N)=O)sc3n2)cc1 [Beispiel 12, 3-Amino-6-(4-isopropyl-phenyl)-4-trifluormethyl-thieno[2,3-b]pyridin-2-carbonsäureamid]
Cc1cc(-c2ccc(F)cc2)nc2sc(C(N)=O)c(N)c12 [Beispiel 6, 3-Amino-6-(4-fluor-phenyl)-4-methyl-thieno[2,3-b]pyridin-2-carbonsäureamid]
CCc1ccc(-c2cc(C(F)(F)F)c3c(N)c(C(N)=O)sc3n2)cc1 [Beispiel 15, 3-Amino-6-(4-ethyl-phenyl)-4-trifluormethyl-thieno[2,3-b]pyridin-2-carbonsäureamid]
NC(=O)c1sc2nc(-c3ccc(Cl)cc3)cc(C(F)(F)F)c2c1N [Beispiel 22, 3-Amino-6-(4-chlor-phenyl)-4-trifluormethyl-thieno[2,3-b]pyridin-2-carbonsäureamid]
Cc1ccc(-c2cc(C(F)F)c3c(N)c(C(N)=O)sc3n2)cc1 [Beispiel 11, 3-Amino-4-difluormethyl-6-(4-methyl-phenyl)-thieno[2,3-b]pyridin-2-carbonsäureamid]
Cc1cc(-c2cccs2)nc2sc(C(N)=O)c(N)c12 [Beispiel 10, 3-Amino-4-methyl-6-(2-thienyl)-thieno[2,3-b]pyridin-2-carbonsäureamid]
NC(=O)c1sc2nc(-c3ccccc3)cc(C(F)(F)F)c2c1N [Beispiel 13, 3-Amino-6-phenyl-4-trifluormethyl-thieno[2,3-b]pyridin-2-carbonsäureamid]
CSc1ccc(-c2cc(C)c3c(N)c(C(N)=O)sc3n2)cc1 [3-Amino-4-methyl-6-(4-methylthio-phenyl)-thieno[2,3-b]pyridin-2-carbonsäureamid]
NC(=O)c1sc2nc(-c3ccc4c(c3)OCO4)cc(C(F)(F)F)c2c1N [Beispiel 26, 3-Amino-6-(3,4-dioxomethylen-phenyl)-4-trifluormethyl-thieno[2,3-b]pyridin-2-carbonsäureamid]
CCOc1ccc(-c2cc(C(F)(F)F)c3c(N)c(C(N)=O)sc3n2)cc1 [Beispiel 20, 3-Amino-6-(4-ethoxy-phenyl)-4-trifluormethyl-thieno[2,3-b]pyridin-2-carbonsäureamid]
Cc1ccc(-c2cc(C(F)(F)F)c3c(N)c(C(N)=O)sc3n2)cc1 [Beispiel 14, 3-Amino-6-(4-methyl-phenyl)-4-trifluormethyl-thieno[2,3-b]pyridin-2-carbonsäureamid]
